Measured values as given in US20230348495A1, “A COMPOUND HAVING INHIBITORY ACTIVITY AGAINST KRAS G12D MUTATION” (TAIHO PHARMACEUTICAL CO., LTD., priority 2019, published 2023).

Legend:
KRAS G12D = KRAS G12D (Homo sapiens (Human), UniProt P01116, G12D); experiment: Inhibitory activity on KRAS G12D nucleotide (GDP-GTP) exchange reaction in vitro (SOS1-dependent, BODIPY FL GDP); format: biochemical; settings: BODIPY FL GDP-bound KRAS G12D, compound 25° C. 1 hour, then SOS1 and GMPPNP 30 minutes
Excerpt: Test Example 1: Evaluation of inhibitory activity of compounds on KRAS G12D nucleotide (GDP-GTP) exchange reaction in vitro
Recombinant KRAS G12D (conjugated N-terminus His6-tag, TEV protease cleavage site and KRAS G12D residues 1-169 (SEQ ID NO: 1), prepared by the method described as below) and cleaved recombinant SOS1 (residues 564-1049(SEQ ID NO: 2), prepared by the method as below) proteins were expressed in E. coli and purified by affinity chromatography.
To prepare the recombinant KRAS G12D, the codon-optimized DNA sequence for the recombinant KRAS G12D (conjugated N-terminus His6-tag, TEV protease cleavage site and KRAS G12D residues 1-169 (SEQ ID NO: 3))was synthesized by GeneArt Technology (Life Technologies, Carlsbad, CA, US). The construct was subcloned into the expression vector pET28a and transformed into Escherichia coli BL21 (DE3) strains (Novagen, Madison, WI, US).
The transformed strain was cultivated in 2 L Luria Broth medium with 25 μg/mL kanamycin at a temperature of 37° C. to a density of 0.6 (OD600), then induced for expression with […] IPTG and further cultivated for 4 h. The cell pellet was resuspended in ice-cold lysis buffer containing 50 mM Tris-HCl (pH 7.5), 200 mM NaCl, and 100 μM TCEP (tris(2-carboxyethyl)phosphine).
After sonication, the disrupted debris was removed by centrifugation. The supernatant was applied on to Ni-NTA affinity gels, and the recombinant human KRAS (G12D) eluted fraction was collected. The buffer of the collected fraction was exchanged to the buffer containing 50 mM Tris-HCl (pH 7.5), 200 mM NaCl, 10% Glycerol, and 5 mM DTT by PD-10 column (GE-Healthcare, Chicago, IL, US).
To prepare the cleaved recombinant SOS1, the codon optimized DNA sequences for the recombinant SOS1 (residues 564-1049 with a conjugated N-terminus His6-tag and TEV protease cleavage site (SEQ ID NO: 4)) was synthesized by GeneArt Technology (Life Technologies). The construct was subcloned into the expression vector pET28a and transformed into Escherichia coli BL21 (DE3) strains (Novagen, Madison, WI, USA).
The transformed strain was cultivated in 2 L Terrific Broth medium with 25 μg/mL kanamycin at a temperature of 37° C. to a density of 0.8 (OD600), then shifted to a temperature of 16° C., induced for expression with […] IPTG, and further cultivated for 16 h. The cell pellet was resuspended in ice-cold lysis buffer containing 50 mM Tris-HCl (pH 7.5), 200 mM NaCl, and 100 μM TCEP.
After sonication, the disrupted debris was removed by centrifugation. The supernatant was applied on to Ni-NTA affinity gels, and the recombinant human SOS1 eluted fraction was collected. Then, His6-tagged TEV protease was added to the collected fraction, dialyzed with the ice-cold lysis buffer for 16 h at a temperature of 4° C., and applied on to Ni-NTA affinity gels. The flow-through fraction containing the tag-cleavaged recombinant human SOS1 was collected. The buffer of the collected fraction was exchanged to the buffer containing 50 mM Tris-HCl (pH 7.5), 200 mM NaCl, 10% Glycerol, and 5 mM DTT by PD-10 column (GE-Healthcare).
To prepare BODIPY FL (fluorescent dye) GDP-bound KRAS G12D protein, 50 μM KRAS G12D protein was incubated with 0.5 mM BODIPY FL GDP in a loading buffer (20 mM Tris-HCl (pH 7.5), 50 mM NaCl, 1 mM DTT and 2.5 mM EDTA) for 1 hour on ice. After the incubation, MgCl2 was added to a final concentration of 10 mM, followed by incubation at room temperature for 30 minutes.
The mixture was allowed to pass through a NAP-5 column to remove free nucleotides and purified BODIPY FL GDP-bound KRAS G12D protein was used for compound evaluation.
For the measurement of the inhibitory activity of compounds on GDP-GTP exchange rate of recombinant KRAS G12D, BODIPY FL GDP-bound KRAS G12D protein was incubated with various concentrations of compound in a reaction buffer (20 mM Tris-HCl (pH 7.5), 100 mM NaCl, 1 mM MgCl2, 2 mM DTT, 0.1% Tween 20) at 25° C. for 1 hour. […]

[1] = tested on: KRAS-G12D mutant cell line (A-427); experiment: Growth inhibition activity on KRAS-G12D mutant cell line (A-427), CellTiter-Glo 3D; format: cell-based; settings: Homo sapiens, 72 h, A-427 cells, 3-day culture with compound, read-out: A427 CTX IC50
Procedure: Test Example 2: A measurement test of growth inhibition activity on KRAS-G12D mutant cell line (A-427) (in vitro) A-427 cells (ATCC, Cat #: HTB-53), which are a KRAS-G12D mutant human lung cancer cell line, were suspended in a 10% fetal bovine serum-containing E-MEM medium (manufactured by Fujifilm Wako Pure Chemical Corporation). The cell suspension was seeded into each well of a 384-well U bottom microplate and cultured in an incubator containing 5% CO2 gas at 37° C. for 1 day.
The compound of the present invention was dissolved in DMSO, and the test compound was diluted with DMSO to give a concentration 500 times the final concentration. The solution of the test compound in DMSO was diluted with the medium used for suspending cells and added to each well of the cell-culture plate to give a DMSO final concentration of 0.2%, followed by culture in an incubator containing 5% CO2 gas at 37° C. for another 3 days. The cell count after a 3-day culture in the presence of the compound was measured using CellTiter-Glo 3D Reagent (manufactured by Promega Corporation).
All wells were added with CellTiter-Glo 3D Reagent and mixed for 10 minutes. 30 minutes after mixing, luminescence was measured by a plate reader. The growth inhibition rate was calculated from the following equation, and the concentration of the test compound at which 50% inhibition was achieved (IC50 (μM)) was determined.
Growth Inhibition Rate(%)=(C−T)/(C)×100
T: the emission intensity in a well into which a test compound was added.
C: the emission intensity in a well into which a test compound was not added.

Sequence of KRAS G12D (P01116 other isoform, or with tags, fused parts or gaps G12D (already in the parent)): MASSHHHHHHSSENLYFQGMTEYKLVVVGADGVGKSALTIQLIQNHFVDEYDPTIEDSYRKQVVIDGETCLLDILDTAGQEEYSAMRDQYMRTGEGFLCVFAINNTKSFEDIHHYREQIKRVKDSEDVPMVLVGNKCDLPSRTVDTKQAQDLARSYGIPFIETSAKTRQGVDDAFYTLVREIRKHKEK

CN(C)[C@@H]1CC[C@@H]1COc1nc(N2CC3CCC(C2)N3)c2ccc(-c3cc(O)cc4ccccc34)c(F)c2n1 (relative stereo) [Example 17, 4-(4-(3,8-diazabicyclo[3.2.1]octan-3-yl)-2-((cis-2-(dimethylamino)cyclobutyl)methoxy)-8-fluoroquinazolin-7-yl)naphthalen-2-ol]
IC50 (KRAS G12D): 14.6 nM | IC50 [1]: 1290 nM

CN(C)CC1(COc2nc3c(c(N4CC5CCC(C4)N5)n2)CCN(c2cc(O)cc4cccc(Br)c24)C3)CC1 [Example 1, 4-(4-(3,8-diazabicyclo[3.2.1]octan-3-yl)-2-((1-((dimethylamino)methyl)cyclopropyl)methoxy)-5,8-dihydropyrido[3,4-d]pyrimidin-7(6H)-yl)-5-bromonaphthalen-2-ol]
IC50 (KRAS G12D): 0.8 nM | IC50 [1]: 1170 nM

Oc1cc(N2CCc3c(nc(OCC4(CN5CC[C@@H](F)C5)CC4)nc3N3CC4CCC(C3)N4)C2)c2c(Br)cccc2c1 [Example 2, 4-(4-(3,8-diazabicyclo[3.2.1]octan-3-yl)-2-((1-(((R)-3-fluoropyrrolidin-1-yl)methyl)cyclopropyl)methoxy)-5,8-dihydropyrido[3,4-d]pyrimidin-7(6H)-yl)-5-bromonaphthalen-2-ol]
IC50 (KRAS G12D): 1.5 nM | IC50 [1]: 540 nM

Oc1cc(N2CCc3c(nc(OCC4(CN5CCOCC5)CC4)nc3N3CC4CCC(C3)N4)C2)c2c(Br)cccc2c1 [Example 3, 4-(4-(3,8-diazabicyclo[3.2.1]octan-3-yl)-2-((1-(morpholinomethyl)cyclopropyl)methoxy)-5,8-dihydropyrido[3,4-d]pyrimidin-7 (6H)-yl) -5-bromonaphthalen-2-ol]
IC50 [1]: 590 nM

Cc1cccc2cc(O)cc(N3CCc4c(nc(OCC5(CN(C)C)CC5)nc4N4CC5CCC(C4)N5)C3)c12 [Example 4, 4-(4-(3,8-diazabicyclo[3.2.1]octan-3-yl)-2-((1-((dimethylamino)methyl)cyclopropyl)methoxy)-5,8-dihydropyrido[3,4-d]pyrimidin-7(6H)-yl)-5-methylnaphthalen-2-ol]
IC50 (KRAS G12D): 1.5 nM | IC50 [1]: 1170 nM

Cc1cccc2cc(O)cc(N3CCc4c(nc(OCC5(CN6CC[C@@H](F)C6)CC5)nc4N4CC5CCC(C4)N5)C3)c12 [Example 5, 4-(4-(3,8-diazabicyclo[3.2.1]octan-3-yl)-2-((1-(((R)-3-fluoropyrrolidin-1-yl)methyl)cyclopropyl)methoxy)-5,8-dihydropyrido[3,4-d]pyrimidin-7(6H)-yl)-5-methylnaphthalen-2-ol]
IC50 (KRAS G12D): 6.2 nM | IC50 [1]: 1170 nM

Cc1cccc2cc(O)cc(N3CCc4c(nc(OCC5(CN6CCOCC6)CC5)nc4N4CC5CCC(C4)N5)C3)c12 [Example 6, 4-(4-(3,8-diazabicyclo[3.2.1]octan-3-yl)-2-((1-(morpholinomethyl)cyclopropyl)methoxy)-5,8-dihydropyrido[3,4-d]pyrimidin-7(6H)-yl)-5-methylnaphthalen-2-ol]
IC50 (KRAS G12D): 3.2 nM | IC50 [1]: 550 nM

CN(C)CC1(COc2nc3c(c(N4CC5CCC(C4)N5)n2)CCN(c2cc(O)cc4cccc(I)c24)C3)CC1 [Example 7, 4-(4-(3,8-diazabicyclo[3.2.1]octan-3-yl)-2-((1-((dimethylamino)methyl)cyclopropyl)methoxy)-5,8-dihydropyrido[3,4-d]pyrimidin-7(6H)-yl)-5-iodonaphthalen-2-ol]
IC50 (KRAS G12D): 0.7 nM | IC50 [1]: 580 nM

Oc1cc(N2CCc3c(nc(OCC4(CN5CC[C@@H](F)C5)CC4)nc3N3CC4CCC(C3)N4)C2)c2c(I)cccc2c1 [Example 8, 4-(4-(3,8-diazabicyclo[3.2.1]octan-3-yl)-2-((1-(((R)-3-fluoropyrrolidin-1-yl)methyl)cyclopropyl)methoxy)-5,8-dihydropyrido[3,4-d]pyrimidin-7(6H)-yl)-5-iodonaphthalen-2-ol]
IC50 (KRAS G12D): 0.9 nM | IC50 [1]: 470 nM

Oc1cc(N2CCc3c(nc(OCC4(CN5CCOCC5)CC4)nc3N3CC4CCC(C3)N4)C2)c2c(I)cccc2c1 [Example 9, 4-(4-(3,8-diazabicyclo[3.2.1]octan-3-yl)-2-((1-(morpholinomethyl)cyclopropyl)methoxy)-5,8-dihydropyrido[3,4-d]pyrimidin-7(6H)-yl)-5-iodonaphthalen-2-ol]
IC50 (KRAS G12D): 0.7 nM | IC50 [1]: 350 nM

C#Cc1cccc2cc(O)cc(C(=O)N3Cc4nc(OCC5(CN6CCOCC6)CC5)nc(N5CC6CCC(C5)N6)c4C3)c12 [Example 10, (4-(3,8-diazabicyclo[3.2.1]octan-3-yl)-2-((1-(morpholinomethyl)cyclopropyl)methoxy)-5,7-dihydro-6H-pyrrolo[3,4-d]pyrimidin-6-yl) (8-ethynyl-3-hydroxynaphthalen-1-yl)methanone]
IC50 (KRAS G12D): 1.5 nM | IC50 [1]: 6620 nM

C#Cc1cccc2cc(O)cc(C(=O)N3Cc4nc(OCC5(CN6CC[C@@H](F)C6)CC5)nc(N5CC6CCC(C5)N6)c4C3)c12 [Example 11, (4-(3,8-diazabicyclo[3.2.1]octan-3-yl)-2-((1-(((R)-3-fluoropyrrolidin-1-yl)methyl)cyclopropyl)methoxy)-5,7-dihydro-6H-pyrrolo[3,4-d]pyrimidin-6-yl) (8-ethynyl-3-hydroxynaphthalen-1-yl)methanone]
IC50 (KRAS G12D): 1.4 nM | IC50 [1]: 7850 nM

Ic1cccc2cccc(N3CCc4c(nc(OCC5(CN6CCOCC6)CC5)nc4N4CC5CCC(C4)N5)C3)c12 [Example 25, 4-((1-(((4-(3,8-diazabicyclo[3.2.1]octan-3-yl)-7-(8-iodonaphthalen-1-yl)-5,6,7,8-tetrahydropyrido[3,4-d]pyrimidin-2-yl)oxy)methyl)cyclopropyl)methyl)morpholine]
IC50 (KRAS G12D): 39.8 nM

CN1CCC[C@@H]1COc1nc2c(c(N3CC4CCC(C3)N4)n1)CCN(c1cc(O)cc3cccc(Br)c13)C2 [Example 26, 4-(4-(3,8-diazabicyclo[3.2.1]octan-3-yl)-2-(((R)-1-methylpyrrolidin-2-yl)methoxy)-5,8-dihydropyrido[3,4-d]pyrimidin-7(6H)-yl)-5-bromonaphthalen-2-ol]
IC50 (KRAS G12D): 19.9 nM
